Test results as given in patent US7915282B2, “C2-phenyl-substituted cyclic keto-enols used as pesticides and herbicides” (Bayer Aktiengesellschaft, priority 2000, dated 2011).

What was measured:
Type in all cases: in vivo
[1] = system: Digitaria; test: Post-emergence test; settings: 125 g ai/ha, after three weeks
Method: (§1) [table] To produce a suitable preparation of active compound, 1 part by weight of active compound is mixed with the stated amount of solvent, the stated amount of emulsifier is added and the concentrate is diluted with water to the desired concentration. Test plants of a height of 5-15 cm are sprayed with the preparation of active compound such that the particular amounts of active compound desired are applied per unit area. The concentration of the spray liquor is chosen such that the particular amount of active compound desired is applied in 1000 l of water/ha. After three weeks, the degree of damage to the plants is rated in % damage in comparison to the development of the untreated control. The figures denote: [table]

[2] = system: Lolium; test: Post-emergence test; settings: 125 g ai/ha, after three weeks
Method: as §1

[3] = system: Wheat; test: Post-emergence test; settings: 125 g ai/ha, after three weeks
Method: as §1

[4] = system: Cotton; test: Post-emergence test; settings: 125 g ai/ha, after three weeks
Method: as §1

[5] = system: Setaria; test: Post-emergence test; settings: 125 g ai/ha, after three weeks
Method: as §1

[6] = system: Soya bean; test: Post-emergence test; settings: 125 g ai/ha, after three weeks
Method: as §1

[7] = system: greenhouse red spider mite (Tetranychus urticae); test: Tetranychus test (OP-resistant/dip treatment); settings: active compound concentration of 1000 ppm; after 7 days; infested bean plants dipped
Method: [table] To produce a suitable preparation of active compound, 1 part by weight of active compound is mixed with the stated amounts of solvent and emulsifier, and the concentrate is diluted with emulsifier-containing water to the desired concentration. Bean plants (Phaseolus vulgaris) which are heavily infested by all stages of the greenhouse red spider mite (Tetranychus urticae) are dipped into a preparation of active compound of the desired concentration. After the desired period of time, the effect in % is determined. 100% means that all spider mites have been killed; 0% means that none of the spider mites have been killed.

[8] = system: larvae of the mustard beetle (Phaedon cochleariae); test: Phaedon larvae test; settings: active compound concentration of 1000 ppm; after 7 days; cabbage leaves dipped
Method: (§2) [table] To produce a suitable preparation of active compound, 1 part by weight of active compound is mixed with the stated amounts of solvent and emulsifier, and the concentrate is diluted with emulsifier-containing water to the desired concentration. Cabbage leaves (Brassica oleracea) are treated by being dipped into the preparation of active compound of the desired concentration and are populated with larvae of the mustard beetle (Phaedon cochleariae) while the leaves are still moist. After the desired period of time, the kill in % is determined. 100% means that all beetle larvae have been killed; 0% means that none of the beetle larvae have been killed.

[9] = system: green rice leaf hopper (Nephotettix cincticeps); test: Nephotettix test; settings: active compound concentration of 1000 ppm; after 6 days; rice seedlings dipped
Method: [table] To produce a suitable preparation of active compound, 1 part by weight of active compound is mixed with the stated amounts of solvent and emulsifier, and the concentrate is diluted with emulsifier-containing, water to the desired concentration. Rice seedlings (Oryza sativa) are treated by being dipped into the preparation of active compound of the desired concentrated and are populated with the green rice leaf hopper (Nephotettix cincticeps) while the leaves are still moist. After the desired period of time, the kill in % is determined. 100% means that all leaf hoppers have been killed; 0% means that none of the leaf hoppers have been killed.

[10] = system: Echinochloa; test: Post-emergence test; settings: 125 g ai/ha, after three weeks
Method: as §1

[11] = system: Sugar beet; test: Post-emergence test; settings: 125 g ai/ha, after three weeks
Method: as §1

[12] = system: Sorghum; test: Post-emergence test; settings: 125 g ai/ha, after three weeks
Method: as §1

[13] = system: Digitaria; test: Pre-emergence test; settings: 125 g ai/ha, after three weeks
Method: (§3) [table] To produce a suitable preparation of active compound, 1 part by weight of active compound is mixed with the stated amount of solvent, the stated amount emulsifier is added and the concentrate is diluted with water to the desired concentration. Seeds of the test plants are sown in normal soil. After about 24 hours, the soil is sprayed with the preparation of active compound such that the particular amounts of active compound desired are applied per unit area. The concentration of the spray liquor is chosen such that the particular amounts of active compound desired are applied in 1000 l of water/ha. After three weeks, the degree of damage to the plants is rated in % damage in comparison to the development of the untreated controls. The figures denote: [table]

[14] = system: Lolium; test: Pre-emergence test; settings: 125 g ai/ha, after three weeks
Method: as §3

[15] = system: Sugar beet; test: Pre-emergence test; settings: 125 g ai/ha, after three weeks
Method: as §3

[16] = system: Veronica; test: Pre-emergence test; settings: 125 g ai/ha, after three weeks
Method: as §3

[17] = system: Setaria; test: Pre-emergence test; settings: 125 g ai/ha, after three weeks
Method: as §3

[18] = system: Soya bean; test: Pre-emergence test; settings: 125 g ai/ha, after three weeks
Method: as §3

[19] = system: Alopecurus; test: Pre-emergence test; settings: 125 g ai/ha, after three weeks
Method: as §3

[20] = system: caterpillars of the owlet moth (Plutella xylostella); test: Plutella test; settings: active compound concentration of 1000 ppm; after 7 days; cabbage leaves dipped
Method: as §2, with “caterpillars” for “larvae”, “owlet moth (Plutella xylostella)” for “mustard beetle (Phaedon cochleariae)”, “caterpillars” for “beetle larvae”

[21] = system: peach aphids (Myzus persicae); test: Myzus test; settings: active compound concentration of 1000 ppm; after 6 days; infested cabbage leaves dipped
Method: as §2, with “oleracea) which are heavily infested by the peach aphids (Myzus persicae)” for “oleracea)”, “concentration.” for “concentration and are populated with larvae of the mustard beetle (Phaedon cochleariae) while the leaves are still moist.”, “aphids” for “beetle larvae”

[22] = system: Galium; test: Post-emergence test; settings: 125 g ai/ha, after three weeks
Method: as §1

[23] = system: Echinochloa; test: Pre-emergence test; settings: 125 g ai/ha, after three weeks
Method: as §3

[24] = system: Avena fatua; test: Pre-emergence test; settings: 125 g ai/ha, after three weeks
Method: as §3

`C=Cc1cc(C)c(C)cc1C1=C(OC(=O)C(C)C)C2(CCC(OC)CC2)OC1=O` (stereo not shown) [Example I-2-b-13] was tested, and the “% damage Digitaria” value [1] was 80%, the “% damage Lolium” value [2] was 70% and the “% damage Wheat” value [3] was 10%. The “% damage Cotton” value [4] was 0%, the “% damage Setaria” value [5] was 95% and the “% damage Soya bean” value [6] was 0%.

Work on `CCc1cc(C)cc(C)c1-c1c(O)c(C)c(-c2ccc(F)cc2)oc1=O` [Example I-4-a-1] yielded a kill in % [7] of 100%, a kill in % [8] of 100% and a kill in % [9] of 100%. The “% damage Digitaria” value [1] was 100%, the “% damage Echinochloa” value [10] was 90% and the “% damage Sugar beet” value [11] was 0%. The “% damage Wheat” value [3] was 20%, the “% damage Sorghum” value [12] was 90% and the “% damage Cotton” value [4] was 0%. The “% damage Setaria” value [5] was 95%, the “% damage Digitaria” value [13] was 100% and the “% damage Lolium” value [14] was 100%. The “% damage Sugar beet” value [15] was 0%, the “% damage Veronica” value [16] was 95% and the “% damage Setaria” value [17] was 100%. The “% damage Soya bean” value [18] was 0%, the “% damage Alopecurus” value [19] was 100% and the kill in % [20] was 100%. The kill in % [21] was 100%.

`CCc1cc(C)c(C2=C(O)C3(CCC(OC)CC3)NC2=O)c(CC)c1` (stereo not shown) [Example I-1-a-3] gave a kill in % [7] of 100%, a kill in % [8] of 100% and a kill in % [9] of 100%. For the same molecule, the “% damage Digitaria” value [1] was 80%, the “% damage Galium” value [22] was 80% and the “% damage Lolium” value [2] was 70%. For the same molecule, the “% damage Setaria” value [5] was 90%, the “% damage Digitaria” value [13] was 100% and the “% damage Lolium” value [14] was 100%. The “% damage Echinochloa” value [23] was 100%, the “% damage Avena fatua” value [24] was 95% and the “% damage Setaria” value [17] was 100%. For the same molecule, the “% damage Alopecurus” value [19] was 100%.

`CCc1cc(CC)c(C2=C(OC(=O)C(C)CC)C3(CCC(OC)CC3)OC2=O)c(CC)c1` (stereo not shown) [Example I-2-b-11] gave a kill in % [7] of 100%.

`C=Cc1cc(C)c(C2=C(OC(=O)C(C)(C)C)C3(CCC(OC)CC3)OC2=O)c(C)c1` (stereo not shown) [Example I-2-b-5] showed a kill in % [21] of 100%.

`C=Cc1cc(C)c(C2=C(OC(=O)C(C)CC)C3(CCC(OC)CC3)OC2=O)cc1C` (stereo not shown) [Example I-2-b-12] was tested, and the “% damage Digitaria” value [1] was 95%, the “% damage Lolium” value [2] was 90% and the “% damage Cotton” value [4] was 0%. For the same molecule, the “% damage Setaria” value [5] was 95% and the “% damage Soya bean” value [6] was 0%.

`CCc1cc(C)c(C2=C(O)C(C)(C)NC2=O)c(CC)c1` [Example I-1-a-1] showed a kill in % [9] of 100%.
